Reference: patent US9745328B2, “Flap modulators” (JANSSEN PHARMACEUTICA NV, priority 2013, dated 2017)
Structures can show the parent of a compound that is named as a salt.

Molecular target: human FLAP (Homo sapiens (Human), UniProt P20292)
Experiment: FLAP binding assay (HTRF format)
Settings: Table 6 (additional runs), human FLAP wild type
Summary of the method: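 Samples were run in duplicate on each of two assay plates, the results were averaged, and the signal was expressed as an HTRF ratio.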

human FLAP, sequence (P20292 whole entry): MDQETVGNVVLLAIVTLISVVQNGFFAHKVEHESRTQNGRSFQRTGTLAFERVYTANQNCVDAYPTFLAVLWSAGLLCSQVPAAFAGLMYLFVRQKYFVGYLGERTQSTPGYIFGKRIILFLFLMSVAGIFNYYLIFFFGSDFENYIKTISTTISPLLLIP

SMILES	Ki
Cc1cccc(-c2ccc(-c3cnc(N)nc3)c(F)c2)c1S(=O)(=O)NC(C)(C)C [Example 287, 4′-(2-Aminopyrimidin-5-yl)-N-tert-butyl-3′-fluoro-3-methylbiphenyl-2-sulfonamide trifluoroacetic acid salt]	8.5 nM
Nc1cnc(-c2ccc(-c3ccccc3S(=O)(=O)Nc3ccc(C(F)(F)F)nc3)cc2F)cn1 [Example 163, 4′-(5-Aminopyrazin-2-yl)-3′-fluoro-N-[6-(trifluoromethyl)pyridin-3-yl]biphenyl-2-sulfonamide]	0.5 nM
CCNS(=O)(=O)c1ccccc1-c1ccc(-c2cnc(N)nc2)c(F)c1 [Example 295, 4′-(2-Aminopyrimidin-5-yl)-N-ethyl-3′-fluorobiphenyl-2-sulfonamide trifluoroacetic acid salt]	20 nM
CC(C)(CO)CNS(=O)(=O)c1ccccc1-c1ccc(-c2cnc(N)cn2)c(F)c1 [Example 103, 4′-(5-Aminopyrazin-2-yl)-3′-fluoro-N-(3-hydroxy-2,2-dimethylpropyl)biphenyl-2-sulfonamide]	0.3 nM
Nc1cnc(-c2ccc(-c3ccccc3S(=O)(=O)NCCCO)cc2F)cn1 [Example 80, 4′-(5-Aminopyrazin-2-yl)-3′-fluoro-N-(3-hydroxypropyl)biphenyl-2-sulfonamide]	3.9 nM
CC(C)(O)CNS(=O)(=O)c1ccccc1-c1ccc(-c2cnc(N)cn2)c(F)c1 [Example 101, 4′-(5-Aminopyrazin-2-yl)-3′-fluoro-N-(2-hydroxy-2-methylpropyl)biphenyl-2-sulfonamide]	1.8 nM
Nc1cnc(-c2ccc(-c3ccccc3S(=O)(=O)N[C@@H]3CCCC[C@@H]3CO)cc2F)cn1 (racemic) [Example 122, racemic (cis)-4′-(5-Aminopyrazin-2-yl)-3′-fluoro-N-[2-(hydroxymethyl)cyclohexyl]biphenyl-2-sulfonamide]	0.7 nM
C[C@H](O)CNS(=O)(=O)Cc1ccccc1-c1ccc(-c2cnc(N)cn2)c(F)c1 [Example 227, (S)-1-[4′-(5-Aminopyrazin-2-yl)-3′-fluorobiphenyl-2-yl]-N-[(2S)-2-hydroxypropyl]methanesulfonamide hydrochloride]	670 nM
Nc1cnc(-c2ccc(-c3ccccc3S(=O)(=O)N[C@@H]3CCc4ccccc43)cc2F)cn1 [Example 23, (R)-4′-(5-Aminopyrazin-2-yl|)-N-[(1R)-2,3-dihydro-1H-inden-1-yl]-3′-fluorobiphenyl-2-sulfonamide]	1.2 nM

Results, then the compound that gave them:

Ki	SMILES
4.3 nM	Nc1ccc(-c2ccc(-c3ccccc3S(=O)(=O)N3CCC(CCO)CC3)cc2F)cn1 [Example 359]
7 nM	Nc1cnc(-c2ccc(-c3ccccc3S(=O)(=O)N3CCCC3)cc2F)cn1 [Example 48, 5-[3-Fluoro-2′-(pyrrolidin-1-ylsulfonyl)biphenyl-4-yl]pyrazin-2-amine]
6.5 nM	Nc1cnc(-c2ccc(-c3ccccc3S(=O)(=O)N3CCOCC3)cc2F)cn1 [Example 44, 5-[3-Fluoro-2′-(morpholin-4-ylsulfonyl)biphenyl-4-yl]pyrazin-2-amine]
26.6 nM	Nc1cnc(-c2ccc(-c3ccccc3S(=O)(=O)N3CCNC(=O)C3)cc2F)cn1 [Example 66, 4-{1,4′-(5-Aminopyrazin-2-yl)-3′-fluorobiphenyl-2-ylisulfonyl}piperazin-2-one]
0.5 nM	O=S1(=O)CCN(S(=O)(=O)c2ccccc2-c2ccc(-c3cnc4[nH]ccc4n3)c(F)c2)CC1 [Example 382, 2-{2′-[(1,1-Dioxidothiomorpholin-4-yl)sulfonyl]-3-fluorobiphenyl-4-yl}-5H-pyrrolo[2,3-b]pyrazine]
2.5 nM	CC[C@@H](CO)NS(=O)(=O)c1ccccc1-c1ccc(-c2cnc(N)cn2)c(F)c1 [Example 153, (S)-4′-(5-aminopyrazin-2-yl)-3′-fluoro-N-(1-hydroxybutan-2-yl)-[1,1′-biphenyl]-2-suifonamide]
3.3 nM	Nc1cnc(-c2ccc(-c3ccccc3S(=O)(=O)N3CCCCCC3)cc2F)cn1 [Example 53, 5-[2′-(Azepan-1-ylsulfonyl)-3-fluorobiphenyl-4-yl]pyrazin-2-amine]
80.6 nM	Nc1ncc(-c2ccc(-c3ccccc3S(=O)(=O)N3CCCC3)cc2F)cn1 [Example 298, 5-[3-Fluoro-2′-(pyrrolidin-1-ylsulfonyl)biphenyl-4-yl]pyrimidin-2-amine trifluoroacetic acid salt]
3.8 nM	Nc1cnc(-c2ccc(-c3ccccc3S(=O)(=O)N3CCC(F)(F)C3)cc2F)cn1 [Example 51, 5-{2′-[(3,3-Difluoropyrrolidin-1-yl)sulfonyl]-3-fluorobiphenyl-4-yl}pyrazin-2-amine]
352 nM	CS(=O)(=O)c1ccccc1-c1ccc(-c2cnc(N)cn2)c(F)c1 [Example 1, 5-(3-Fluoro-2′-(methylsulfonyl)-[1,1′-biphenyl]-4-yl)pyrazin-2-amine]
0.8 nM	CC1(NS(=O)(=O)c2ccccc2-c2ccc(-c3cnc(N)cn3)c(F)c2)COC1 [Example 173, 4′-(5-Aminopyrazin-2-yl)-3′-fluoro-N-(3-methyloxetan-3-yl)biphenyl-2-sulfonamide]
1.5 nM	Nc1cnc(-c2ccc(-c3ccccc3S(=O)(=O)NCC3CCC3)cc2F)cn1 [Example 9, 4′-(5-Aminopyrazin-2-yl)-N-(cyclobutylmethyl)-3′-fluorobiphenyl-2-sulfonamide]
0.5 nM	Nc1cnc(-c2ccc(-c3ccccc3S(=O)(=O)N3CCN(c4cnccn4)CC3)cc2F)cn1 [Example 176, 5-{3-Fluoro-2′-[(4-pyrazin-2-ylpiperazin-1-yl)sulfonyl]biphenyl-4-yl}pyrazin-2-amine]
1.6 nM	Nc1cnc(-c2ccc(-c3ccccc3S(=O)(=O)NCC3(O)CCCCC3)cc2F)cn1 [Example 99, 4′-(5-Aminopyrazin-2-yl)-3′-fluoro-N-[(1-hydroxycyclohexyl)methyl]biphenyl-2-sulfonamide]
15.9 nM	Nc1cnc(-c2ccc(-c3ccccc3S(=O)(=O)N3CCN4CCCC4C3)cc2F)cn1 (racemic) [Example 61, racemic 5-[3-Fluoro-2′-(hexahydropyrrolo[1,2-a]pyrazin-2(1H)-ylsulfonyl)biphenyl-4-yl]pyrazin-2-amine]
1.2 nM	C[C@@H](CO)NS(=O)(=O)c1ccccc1-c1ccc(-c2cnc3[nH]ccc3c2)c(F)c1 [Example 362, 3′-Fluoro-N-[(1S)-2-hydroxy-1-methylethyl]-4′-(1H-pyrrolo[2,3-b]pyridin-5-yl)biphenyl-2-sulfonamide]
63.3 nM	Nc1cnc(-c2ccc(-c3ccccc3S(=O)(=O)N3CCC(N)CC3)cc2F)cn1 [Example 65, 5-{2′-[(4-Aminopiperidin-1-yl)sulfonyl]-3-fluorobiphenyl-4-yl}pyrazin-2-amine]

Same assay, conditions: human FLAP wild type, Table 6 (additional runs)

SMILES	Ki
CNS(=O)(=O)c1ccccc1-c1ccc(-c2cnc3[nH]cc(CO)c3c2)c(F)c1 [Example 457, 3′-Fluoro-4′-[3-(hydroxymethyl)-1H-pyrrolo[2,3-b]pyridin-5-yl]-N-methylbiphenyl-2-sulfonamide]	2.7 nM
Nc1cnc(-c2ccc(-c3ccc(OC(F)(F)F)cc3F)cc2F)cn1 [Example 467, 5-[2′,3-Difluoro-4′-(trifluoromethoxy)biphenyl-4-yl]pyrazin-2-amine]	53.5 nM
Nc1cnc(-c2ccc(-c3cccnc3OC3CCCCC3)cc2F)cn1 [Example 403, 5-{4-[2-(Cyclohexyloxy)pyridin-3-yl]-2-fluorophenyl}pyrazin-2-amine]	69.8 nM
N#Cc1cccnc1COc1ccccc1-c1ccc(-c2cnc(N)cn2)c(F)c1 [Example 531, 2-({[4′-(5-Aminopyrazin-2-yl)-3′-fluorobiphenyl-2-yl]oxy}methyl)pyridine-3-carbonitrile]	8.5 nM
Nc1cnc(-c2ccc(-c3cccnc3OC3CCNCC3)cc2F)cn1 [Example 645]	> 10000 nM
COc1cc(C(F)(F)F)ccc1-c1ccc(-c2cnc(N)cn2)c(F)c1 [Example 553, 5-[3-fluoro-2′-methoxy-4′-(trifluoromethyl)biphenyl-4-yl]pyrazin-2-amine]	19.3 nM
Nc1ncc(-c2ccc(-c3ccc(C(F)(F)F)cc3Oc3ncccn3)cc2F)cn1 [Example 552, 5-[3-Fluoro-2′-(pyrimidin-2-yloxy)-4′-(trifluoromethyl)biphenyl-4-yl]pyrimidin-2-amine]	5.5 nM
CC(C)(C)NS(=O)(=O)c1ccccc1-c1ccc(-c2cnc(N)c(F)c2)c(F)c1 [Example 430, 4′-(6-Amino-5-fluoropyridin-3-yl)-N-tert-butyl-3′-fluorobiphenyl-2-sulfonamide]	5.1 nM
CC(C)(C)NS(=O)(=O)c1ccccc1-c1ccc(-c2cnc(N)cn2)cc1F [Example 574, 4′-(5-Aminopyrazin-2-yl)-N-tert-butyl-2′-fluorobiphenyl-sultonamide]	13.9 nM
Nc1cnc(-c2ccc(-c3ccccc3Oc3ncccn3)cc2F)cn1 [Example 526, 5-[3-Fluoro-2′-(pyrimidin-2-yloxy)biphenyl-4-yl]pyrazin-2-amine]	8.3 nM

The remaining lines, values ahead:

Ki	SMILES
95.1 nM	Nc1nc(-c2ccc(-c3ccccc3S(=O)(=O)N3CCCC3)cc2F)cs1 [Example 579, 4-[3-Fluoro-2′-(pyrrolidin-1-ylsulfonyl)biphenyl-4-yl]-1,3-thiazol-2-amine]
18.6 nM	N#Cc1nc(-c2ccc(-c3ccccc3S(=O)(=O)NCCO)cc2F)cnc1N [Example 413, 4′-(5-Amino-6-cyanopyrazin-2-yl)-3′-fluoro-N-(2-hydroxyethyl)biphenyl-2-sulfonamide]
2.6 nM	Nc1cc(-c2ccc(-c3ccccc3S(=O)(=O)NC3(CO)CCCC3)cc2F)cc2cc[nH]c12 [Example 456, 4′-(7-Amino-1H-indol-5-yl)-3′-fluoro-N-[1-(hydroxymethyl)cyclopentyl]biphenyl-2-sulfonamide]
14.1 nM	Fc1cc(-c2cccnc2OCC2CC2)ccc1-c1cnc2[nH]ccc2n1 [Example 400, 2-{4-[2-(Cyclopropylmethoxy)pyridin-3-yl]-2-fluorophenyl}-5H-pyrrolo[2,3-b]pyrazine]

Same assay, conditions: human FLAP wild type, a calculated value of 0.000 indicates Ki less than 1 nM

Ki	SMILES
< 1 nM	O=S1(=O)CCN(S(=O)(=O)c2ccccc2-c2ccc(-c3cnc4[nH]ccc4n3)c(F)c2)CC1 [Example 382, 2-{2′-[(1,1-Dioxidothiomorpholin-4-yl)sulfonyl]-3-fluorobiphenyl-4-yl}-5H-pyrrolo[2,3-b]pyrazine]
< 1 nM	CC(C)(CO)CNS(=O)(=O)c1ccccc1-c1ccc(-c2cnc(N)cn2)c(F)c1 [Example 103, 4′-(5-Aminopyrazin-2-yl)-3′-fluoro-N-(3-hydroxy-2,2-dimethylpropyl)biphenyl-2-sulfonamide]
< 1 nM	Nc1cnc(-c2ccc(-c3ccccc3S(=O)(=O)N3CCN(c4cnccn4)CC3)cc2F)cn1 [Example 176, 5-{3-Fluoro-2′-[(4-pyrazin-2-ylpiperazin-1-yl)sulfonyl]biphenyl-4-yl}pyrazin-2-amine]
